Test results taken from patent EP4635969A1, “NOVEL GLUCOCORTICOID, METHOD FOR PREPARING SAME, AND USE THEREOF” (Tianjin Pharmaceutical Biotechnology Co., Ltd., priority 2022, dated 2024).

Assays:
psoriasis model mice = experiment: Psoriasis experiment (imiquimod model): skin lesion (PASI) score; type: in vivo; conditions: compared with the model group
[1] = tested on: inflammatory bowel disease model rats; experiment: Inflammatory bowel disease experiment (TNBS model): macroscopic injury score of the colon; type: in vivo; conditions: for inflammatory response on the intestinal surface / intestinal symptoms: compared with the model group
Method: Pharmacological Example 7: Pharmacodynamic Experiment on Inflammatory Bowel Disease in Rats
Test samples: The jet-milled compounds 23 and 34 were accurately weighed and prepared as 2 mg/mL clear solutions using anhydrous ethanol, respectively. The solutions were then diluted to 0.2 mg/mL with double-distilled water as the test samples, and stored at room temperature protected from light until use.
Animals in Groups 2 to 5 were subjected to trinitrobenzene sulfonic acid (TNBS) modeling as follows: A 5% TNBS aqueous solution was adjusted to 20 mg/mL TNBS (50% ethanol solution) with alcohol and water. After fasting for 24 h, the rats were anesthetized using an inhalation anesthesia machine. A silicone hose was inserted approximately 8 cm into the anus, and then TNBS was injected at a dose of 50 mg/kg. After injection, the rats were placed vertically for 1 min to prevent the backflow of TNBS solution. Then, the rats were placed into their cages for observation until the animals recovered.
Drug administration started one day before modeling, with one dose administered 1 hour before modeling and then once a day for 5 consecutive days. […] Table 14. Animal grouping and drug administration dosages
The experiment ended on day 5 after TNBS modeling. After isoflurane anesthesia, blood was collected from the hearts, and the rats were euthanized. The abdominal cavity was rapidly opened, and the macroscopic injury scoring of the colon in rats was performed based on the adhesion, obstruction, thickening of the colonic wall, colonic congestion, and necrosis in the colon area. After clearing the colonic contents, the colonic samples were longitudinally incised. The proximal 2/3 of the colon was excised, prepared into Swiss rolls, and stored in 4% neutral buffered formalin for histopathological analysis. Tissues were trimmed, dehydrated, paraffin-embedded, and sectioned (approximately 5 µm thickness), stained with hematoxylin-eosin (HE), and observed for pathological changes. Pathologists performed blind scoring of colonic lesions.
Quantitative indices were first subjected to Bartlett's test for homogeneity of variance. When the variance was homogeneous (P > 0.05), one-way analysis of variance (ANOVA) was used for a statistical test; if there was statistical significance (P ≤ 0.05), Dunnett's t-test (Dunnett method) was used to compare intergroup differences; if there was no statistical significance (P > 0.05), the statistical analysis was concluded. When the variance was heterogeneous (P ≤ 0.05), Kruskal-Wallis H rank-sum test (K-W method) was used for statistical analysis: if there was statistical significance (P ≤ 0.05), Mann-Whitney U test (M-W method) was further performed to compare intergroup differences; if there was no statistical significance (P > 0.05), the statistical analysis was concluded.

[2] = tested on: intraocular pressure of guinea pigs; experiment: Adverse reactions of continuous ocular administration: intraocular pressure; type: in vivo
Method: Pharmacological Example 9: Experiment on Adverse Reactions of Continuous Ocular Administration in Guinea Pigs
Test samples: Compounds 17 and 23 were prepared as 5 mg/5 mL ophthalmic suspensions with reference to the formulation of Fluorometholone Eye Drops, and stored at room temperature protected from light until use.
Positive control drug: Fluorometholone Eye Drops (specification: 5 mL/5 mg; Santen Pharmaceutical (CHINA) Co., Ltd.; Lot No.: 1FM6545), Loteprednol Etabonate Eye Drops (specification 0.5% (5 mg/mL); Shandong Bausch & Lomb Freda Pharmaceutical Co., Ltd; Lot No. 386521), stored at room temperature protected from light until use.
Animals: 50 guinea pigs, conventional grade, with an equal number of males and females, weighing 300-350 g..
Animal grouping: After 5 days of adaptive feeding, the guinea pigs were randomly divided into 5 groups based on body weight. Group 1 was the blank control group, and 50 µL of normal saline was dropped into the eyes (bilateral) of the guinea pigs. Groups 2 to 5 were the fluorometholone group, loteprednol group, compound 17 group, and compound 23 group, respectively, and the corresponding drugs were dropped into the eyes (bilateral) of the guinea pigs. Table 19. Animal grouping and drug administration dosages for the experiment on adverse reactions of continuous ocular administration in guinea pigs
Intraocular pressure measurement time: The intraocular pressure of animals in each group was measured before administration and on days 7, 14, 21, and 28 post-administration.

[3] = tested on: inflammatory cytokines IL-6 and IL-12; experiment: Anti-asthma pharmacodynamic experiment: inflammatory cytokines in bronchoalveolar lavage fluid (ELISA); type: in vivo, female BALB/c mice; conditions: compared with the model group
Method: Pharmacological Example 4: Pharmacodynamic Experiment on Anti-Asthma
The suspensions were stored at room temperature protected from light until use.
Positive control drug: Budesonide Suspension for Inhalation (specification: 2 mL: 1 mg; AstraZeneca Inc.; Lot No. : 327392) was diluted with injection-grade sodium chloride solution to 0.3 mg/ml as the positive control drug, and stored at room temperature protected from light until use.
Sixty female BALB/c mice underwent a one-week adaptive feeding period. Ten mice were randomly selected as the blank control group, while 50 mice were selected to establish asthma models.
From days 21 to 23 after sensitization, the mice in the model group and drug administration group were exposed to a 30-minute aerosol challenge with 5% OVA, while the mice in the blank control group were exposed to normal saline aerosol for the same duration.
At the end of airway hyperresponsiveness testing in mice, the mice were euthanized by cervical dislocation and fixed on a dissection tray. The abdomens and thoracic cavities of the mice were opened, and the skin and excess tissues of the neck were excised to expose the trachea of the mice. A small incision was made transversely on the trachea with a small scissors. A pre-treated 1 mL syringe needle was inserted and fastened with surgical thread. A 1 mL syringe was used to slowly inject 0.5 mL of pre-chilled phosphate-buffered saline (PBS) into the lungs of the mice, followed by slow aspiration. Each mouse was lavaged once, and a total of approximately 0.4 ml of lavage fluid was collected. The bronchoalveolar lavage fluid was centrifuged at 3000 rpm for 5 min. After centrifugation, the supernatant was aliquoted, and the levels of inflammatory cytokines IL-6 and IL-12 in the bronchoalveolar lavage fluid were determined using ELISA kits.
Statistical analysis was performed using SPSS software. Measurement data were expressed as mean ± standard deviation. One-way ANOVA was used for intergroup comparisons. For data with homogeneous variance, LSD test was used; for data with heterogeneous variance, Dunnett-t test was used. A value of P < 0.05 was considered statistically significant.

[4] = tested on: dry eye syndrome model New Zealand rabbits; experiment: Dry eye syndrome experiment (benzalkonium chloride model): tear secretion test with phenol red cotton threads; type: in vivo, male New Zealand White rabbits; conditions: for tear secretion: compared with the model group

SMILES | PASI scores (psoriasis model mice) | inflammatory response on the intestinal surface / intestinal symptoms [1] | intraocular pressure after continuous ocular administration [2] | Effects on inflammatory cytokines in bronchoalveolar lavage fluid of mice [3] | tear secretion [4] | Macroscopic injury score ([1]; colon, day 5 after TNBS, 2 mg/kg once a day (compounds intraintestinally, dexamethasone by gavage)) | Wetting length of phenol red cotton threads (mm) D0 ([4]; D0, 1 mg/mL, 50 µL/eye, 3 times a day for 14 days) [mm] | Wetting length of phenol red cotton threads (mm) D3 ([4]; D3, 1 mg/mL, 50 µL/eye, 3 times a day for 14 days) [mm] | Wetting length of phenol red cotton threads (mm) D7 ([4]; D7, 1 mg/mL, 50 µL/eye, 3 times a day for 14 days) [mm] | Wetting length of phenol red cotton threads (mm) D15 ([4]; D15, 1 mg/mL, 50 µL/eye, 3 times a day for 14 days) [mm]
C[C@]12C=CC(=O)C=C1CC[C@H]1[C@@H]3C[C@H]4OC(c5ccc(CSC6COC(=O)C6)cc5)O[C@@]4(C(=O)CO)[C@@]3(C)C[C@H](O)[C@@]12Cl (stereo partly drawn) [Compound 26, (6aS,6bR,7S,8aS,8bS,11aR,12aS,12bS)-6b-Chloro-7-hydroxy-8b-(2-hydroxyacetyl)-6a,8a-dimethyl-10-(4-(((5-oxotetrahydrofuran-3-yl)thio)methyl)phenyl)-1,2,6a,6b,7,8,8a,8b,11a,12,12a,12b-do decahydro-4H-naphtho[2',1':4,5]indeno[1,2-d][1,3]dioxol-4-one] | significantly decreased PASI scores on day 7 | significantly alleviated the intestinal symptoms in inflammatory bowel disease model rats | no abnormal intraocular pressure observed | pharmacological effects similar to those of compound 23 | significantly increased the tear secretion | – | – | – | – | –
C[C@]12C=CC(=O)C=C1[C@@H](F)C[C@H]1[C@@H]3C[C@H]4OC(c5ccc(CSC6CCOC6=O)nc5)O[C@@]4(C(=O)CO)[C@@]3(C)C[C@H](O)[C@@]12F (stereo partly drawn) [Compound 46, (25,6aS,6bR,78,8a8,8bS,11aR,12a8,12b8S)-2,6b-Difluoro-7-hydroxy-8b-(2-hydroxyacetyl)-6a,8a-dimethyl-10-(6-(((2-oxotetrahydrofuran-3-yl)thio)methyl)pyridin-3-yl)-1,2,6a,6b,7,8,8a,8b,11a,12, 12a,12b-dodecahydro-4H-naphtho[2',1':4,5]indeno[1,2-d][1,3]dioxol-4-one] | significantly decreased PASI scores on day 7 | significantly alleviated the intestinal symptoms in inflammatory bowel disease model rats | no abnormal intraocular pressure observed | pharmacological effects similar to those of compound 23 | significantly increased the tear secretion | – | – | – | – | –
C[C@]12C=CC(=O)C=C1[C@@H](F)C[C@H]1[C@@H]3C[C@H]4OC(c5ccc(CSC6CCOC6=O)cc5)O[C@@]4(C(=O)SCF)[C@@]3(C)C[C@H](O)[C@@]12F (stereo partly drawn) [Compound 34, S-(Fluoromethyl) (2S,6aS,6bR,7S,8aS,8bS,11aR,12aS,12bS)-2,6b-difluoro-7-hydroxy-6a,8a-dimethyl-4-oxo-10-(4-( ((2-oxotetrahydrofuran-3-yl)thio)methyl)phenyl)-1,2,4,6a,6b,7,8,8a,11a,12,12a,12b-dodecahydro-8bH-naphtho[2',1':4,5]indeno[1,2-d][1,3]dioxole-8b-carbothioate] | significantly decreased PASI scores on day 7 | significantly inhibited the inflammatory response on the intestinal surface | no abnormal intraocular pressure observed | pharmacological effects similar to those of compound 23 | significantly increased the tear secretion | 5.00 ± 0.95 | – | – | – | –
C[C@]12C=CC(=O)C=C1[C@@H](F)C[C@H]1[C@@H]3C[C@H]4OC(c5ccc(CSC6CCOC6=O)cc5)O[C@@]4(C(=O)OCC#N)[C@@]3(C)C[C@H](O)[C@@]12F (stereo partly drawn) [Compound 37, Cyanomethyl (2S,6aS,6bR,7S,8aS,8bS,11aR,12aS,12bS)-2,6b-difluoro-7-hydroxy-6a,8a-dimethyl-4-oxo-10-(4-( ((2-oxotetrahydrofuran-3-yl)thio)methyl)phenyl)-1,2,4,6a,6b,7,8,8a,11a,12,12a,12b-dodecahydro-8bH-naphtho[2',1':4,5]indeno[1,2-d][1,3]dioxole-8b-carboxylate] | significantly decreased PASI scores on day 7 | significantly alleviated the intestinal symptoms in inflammatory bowel disease model rats | no abnormal intraocular pressure observed | pharmacological effects similar to those of compound 23 | significantly increased the tear secretion | – | – | – | – | –
C[C@]12C=CC(=O)C=C1CC[C@H]1[C@@H]3C[C@H]4OC(c5ccc(CSC6CCOC6=O)nc5)O[C@@]4(C(=O)CO)[C@@]3(C)C[C@H](O)[C@@]12F (stereo partly drawn) [Compound 47, (6aS,6bR,7S,8aS,8bS,11aR,12aS,12bS)-6b-Fluoro-7-hydroxy-8b-(2-hydroxyacetyl)-6a,8a-dimethyl-10-(6-(((2-oxotetrahydrofuran-3-yl)thio)methyl)pyridin-3-yl)-1,2,6a,6b,7,8,8a,8b,11a,12,12a,12 b-dodecahydro-4H-naphtho[2',1':4,5]indeno[1,2-d][1,3]dioxol-4-one] | significantly decreased PASI scores on day 7 | significantly alleviated the intestinal symptoms in inflammatory bowel disease model rats | no abnormal intraocular pressure observed | pharmacological effects similar to those of compound 23 | significantly increased the tear secretion | – | – | – | – | –
C[C@]12C=CC(=O)C=C1CC[C@H]1[C@@H]3C[C@H]4OC(c5ccc(CSC6COC(=O)C6)cc5Cl)O[C@@]4(C(=O)CO)[C@@]3(C)C[C@H](O)[C@@]12F (stereo partly drawn) [Compound 20, (6aS,6bR,7S,8aS,8bS,11aR,12aS,12bS)-10-(2-Chloro-4-(((5-oxotetrahydrofuran-3-yl)thio)methyl)phenyl)-6b-fluoro-7-hydroxy-8b-(2-hydroxyacetyl)-6a,8a-dimethyl-1,2,6a,6b,7,8,8a,8b,11a,12,12a, 12b-dodecahydro-4H-naphtho[2',1':4,5]indeno[1,2-d][1,3]dioxol-4-one] | significantly decreased PASI scores on day 7 | significantly alleviated the intestinal symptoms in inflammatory bowel disease model rats | no abnormal intraocular pressure observed | pharmacological effects similar to those of compound 23 | significantly increased the tear secretion on day 15 | – | 27.76 ± 6.04 | 23.39 ± 3.93 | 29.78 ± 2.74 | 35.28 ± 3.21
